The structures appear in SMILES notation. Read-outs that look alike come from different tables or passages of the source. Where only a bound is given, the exact number is not on record here.

Holding throughout (assay type): cell-based
One assay deals with A-549. As to the kind of experiment: Lung cancer panel proliferation inhibition, A-549. To be noted: Homo sapiens. How it is done:
(§1) Inhibitory ability of compounds synthesized on the proliferation of three panels of cancer cell lines, including 5 breast cancer, 6 liver cancer, and 3 lung cancer cell lines were evaluated. Exponentially growing cells were seeded in the media of choice at various cell densities in 384-well plates with 20 ul per well and incubated overnight at 37° C., 5% CO2 incubator. Compounds were prepared as 10-point, 3-fold serial dilutions in DMSO, beginning at 6 mM. 1 μl of DMSO solutions from the compound stock plates were added to 99 ul of cell media (final top concentration of compound in the assay was 30 uM and the final concentration of DMSO was 0.5%). 20 μL of compound solutions in media were added to each well of plates with cells seeded. After adding compound solutions, assay plates were incubated for 8 and 12 days, respectively, at 37° C., 5% CO2. During this incubation period, cell media was changed every 4 days. After removing old media from cell plates, 40 ul of media with testing compounds dissolved, which were prepared by adding 1 ul of compound DMSO serial solutions to 199 ul of cell media, were added to the assay plates with the same layout as they were initially prepared. After 8 or 12 days, cell viability was measured using the CellTiter-Glo assay kit from Promega (Madison, Wis., USA) by quantitating the ATP present in the cell cultures. 20 μL of CellTiter-Glo reagent was added to each well of the cell plates. Luminescence was read after 10 minute of incubation with the Envision multiple plate reader from PerkinElmer (Waltham, Mass., USA). The concentrations of compounds inhibiting cell viability by 50% (IC50 values) were determined using a sigmoidal dose-response model (variable slopes, four parameters) in Prism 7 (La Jolla, Calif., USA).

A further assay has as its system Hep G2. Nature of the assay: Liver cancer panel proliferation inhibition, Hep G2. To be noted: Homo sapiens. The protocol:
as §1

The test system of a further assay is SNU398. As to the kind of experiment: Liver cancer panel proliferation inhibition, SNU398. To be noted: Homo sapiens. The protocol: as §1
The subject of the next assay is Huh1. Nature of the assay: Liver cancer panel proliferation inhibition, Huh1. The settings on record: Homo sapiens. How it is done:
as §1

A further assay relates to MDA-MB-231. Nature of the assay: Breast cancer panel proliferation inhibition, MDA-MB-231. To be noted: Homo sapiens. How it is done:
as §1

For assay [1], the system named is Pancreatic Carcinoma MIA PaCa-2 cell. As to the kind of experiment: Cell proliferation inhibition, MIA PaCa-2 (CellTiter-Glo). The settings on record: Homo sapiens, MIA PaCa-2, incubated for 12 days (read after 8 or 12 days), read-out: IC50 (μM) MIA PaCa2. The text has this:
Materials and Cell Lines: Z-138, U251, and MIA PaCa2 cells were purchased from ATCC (American Type Culture Collection, Manassas, Va.) and Chinese Academy of Science (Shanghai, China). Iscove's Modified Dulbecco's Medium (IMDM), Dulbecco's Modified Eagle Medium (DMEM), penicillin-streptomycin, heat inactivated fetal bovine serum (FBS), and horse serum was purchased from ThermoFisher, Waltham, Mass., USA. Corning 96- and 384-well cell culture plates were purchased from ThermoFisher, Waltham, Mass., USA. Cell-Titer Glo® was purchased from Promega Corporation, Madison, Wis., USA.
In order to evaluate the inhibitory ability of compounds synthesized on the proliferation of the Pancreatic Carcinoma MIA PaCa-2 cell, exponentially growing cells were seeded in the culture media of DMEM with 10% FBS, 2.5% horse serum, 1 mM of Sodium Pyruvate and 1% penicillin-streptomycin at a concentration of 2500 cells/ml in a 384-well plate with 20 ul per well and incubated overnight at 37° C., 5% CO2 incubator. Compounds were prepared as 10-point, 3-fold serial dilutions in DMSO, beginning at 6 mM. 1 μl of DMSO solutions from the compound stock plates were added to 99 ul of cell media (final top concentration of compound in the assay was 30 uM and the final concentration of DMSO was 0.5%). 20 μL of compound solutions in media were added to each well of MIA PaCa-2 cell plates. After adding compound solutions, assay plates were incubated for 12 days at 37° C., 5% CO2. During this incubation period, cell media was changed every 4 days. After removing old media from cell plates, 40 ul of media with testing compounds dissolved, which were prepared by adding 1 ul of compound DMSO serial solutions to 199 ul of cell media, were added to the assay plates with the same layout as they were initially prepared. After 8 or 12 days, cell viability was measured using the CellTiter-Glo assay kit from Promega (Madison, Wis., USA) by quantitating the ATP present in the cell cultures. 20 μL of CellTiter-Glo reagent was added to each well of the cell plates. Luminescence was read after 10 minute of incubation with the Envision multiple plate reader from PerkinElmer (Waltham, Mass., USA). The concentrations of compounds inhibiting cell viability by 50% (IC50 values) were determined using a sigmoidal dose-response model (variable slopes, four parameters) in Prism 7 (La Jolla, Calif., USA).

Another assay deals with MHCC-97H. As to the kind of experiment: Liver cancer panel proliferation inhibition, MHCC-97H. The settings on record: Homo sapiens, MHCC97H. The protocol:
as §1

In another assay the test system is SNU475. As to the kind of experiment: Liver cancer panel proliferation inhibition, SNU475. To be noted: Homo sapiens. The protocol:
as §1

[2] abbreviates: A549, 192 h, A-549, 8 days, read-out: IC50 (μM) 8 days.
[3] abbreviates: A549, 288 h, A-549, 12 days, read-out: IC50 (μM) 12 days.
Setting [4] is: HepG2, 192 h, Hep G2, 8 days, read-out: IC50 (μM) 8 days.
[5] abbreviates: HepG2, 288 h, Hep G2, 12 days, read-out: IC50 (μM) 12 days.
The mark [6] stands for this setting: SNU-398, 192 h, SNU398, 8 days, read-out: IC50 (μM) 8 days.
Where [7] appears, read: SNU-398, 288 h, SNU398, 12 days, read-out: IC50 (μM) 12 days.
The mark [8] stands for this setting: HuH-1, 192 h, Huh1, 8 days, read-out: IC50 (μM) 8 days.
[9] abbreviates: HuH-1, 288 h, Huh1, 12 days, read-out: IC50 (μM) 12 days.
[10] abbreviates: 192 h, MDA-MB-231, 8 days, read-out: IC50 (μM) 8 days.
Setting [11] is: 288 h, MDA-MB-231, 12 days, read-out: IC50 (μM) 12 days.
Setting [12] is: 192 h, 8 days, read-out: IC50 (μM) 8 days.
Setting [13] is: 288 h, 12 days, read-out: IC50 (μM) 12 days.
Setting [14] is: SNU-475, 192 h, SNU475, 8 days, read-out: IC50 (μM) 8 days.
[15] abbreviates: SNU-475, 288 h, SNU475, 12 days, read-out: IC50 (μM) 12 days.

The term IC50 denotes the concentration at which inhibition is half-maximal. With `CC(=O)N1CCC(Nc2ccc3c(c2)C(=O)N(C[C@H](O)CN2CCc4ccccc4C2)CCO3)CC1` [Compound 52a, (R)-7-((1-acetylpiperidin-4-yl)amino)-4-(3-(3,4-dihydroisoquinolin-2(1H)-yl)-2-hydroxypropyl)-3,4-dihydrobenzo[f][1,4]oxazepin-5(2H)-one], the IC50 worked out at 0.13 µM in the assay with A-549 (setting [2]); 0.028 µM with A-549 (setting [3]); 3.09 µM in the assay on Hep G2 (setting [4]); 0.97 µM in the assay on Hep G2 (setting [5]); 0.45 µM in the assay on SNU398 (setting [6]); 0.12 µM in the assay on SNU398 (setting [7]). Further, the IC50 in the assay on Huh1 (setting [8]) was found to be 0.54 µM; in the assay with Huh1 (setting [9]), 0.075 µM; in the assay with MDA-MB-231 (setting [10]), 0.17 µM; in the assay on MDA-MB-231 (setting [11]) it was 0.064 µM; in assay [1], 0.114 µM; in the assay with MHCC-97H (setting [12]) it was 0.023 µM. Moreover, the figures for the half-inhibitory concentration (IC50) in the assay with MHCC-97H (setting [13]), with SNU475 (setting [14]) and in the assay with SNU475 (setting [15]) were 0.024 µM, 0.29 µM and 0.35 µM, respectively.

Consider `CC(=O)N1CCC(Nc2cc(C(=O)NC[C@H](O)CN3CCc4ccccc4C3)ncn2)CC1` [Compound C3, reference compound], for which the IC50 in the assay with A-549 (setting [2]) is 0.096 µM; in the assay with A-549 (setting [3]) it was 0.066 µM; in the assay with Hep G2 (setting [4]) it was > 10 µM; in the assay on Hep G2 (setting [5]) it was 3.26 µM; in the assay with SNU398 (setting [6]) it was 0.83 µM; in the assay on SNU398 (setting [7]), 0.41 µM. Further, the half-maximal inhibitory concentration (IC50) in the assay on Huh1 (setting [8]) was 1.92 µM; in the assay with Huh1 (setting [9]) it was 0.085 µM; in the assay on MDA-MB-231 (setting [10]) it was 0.7 µM; in the assay with MDA-MB-231 (setting [11]), 0.096 µM; in assay [1], 0.15 µM; in the assay on MHCC-97H (setting [12]) it was 0.089 µM. In addition, the IC50 in the assay with MHCC-97H (setting [13]) came out at 0.086 µM; in the assay with SNU475 (setting [14]), 0.66 µM; with SNU475 (setting [15]), 0.86 µM.

On to `CC(=O)N1CCC(Nc2ccc3c(c2)C(=O)N(C[C@H](O)CN2CCc4ccccc4C2)CC3)CC1` [Compound 24a, (R)-7-((1-acetylpiperidin-4-yl)amino)-2-(3-(3,4-dihydroisoquinolin-2(1H)-yl)-2-hydroxypropyl)-3,4-dihydroisoquinolin-1(2H)-one], for which the IC50 stood at 0.064 µM with A-549 (setting [2]); 0.037 µM with A-549 (setting [3]); 2.87 µM with Hep G2 (setting [4]); 0.77 µM in the assay on Hep G2 (setting [5]); 0.54 µM in the assay on SNU398 (setting [6]); 0.25 µM in the assay with SNU398 (setting [7]). In addition, the IC50 in the assay with Huh1 (setting [8]) is 0.44 µM; with Huh1 (setting [9]) it was 0.041 µM; in the assay on MDA-MB-231 (setting [10]), 0.49 µM; in the assay on MDA-MB-231 (setting [11]), 0.075 µM; in assay [1], 0.13 µM; in the assay on MHCC-97H (setting [12]), 0.02 µM. Besides, the IC50 in the assay with MHCC-97H (setting [13]) is 0.029 µM; in the assay on SNU475 (setting [14]), 0.21 µM; in the assay with SNU475 (setting [15]), 0.32 µM.

The values above are taken from patent US11591326B2, “Inhibitors of protein arginine methyltransferase 5 (PRMT5), pharmaceutical products thereof, and methods thereof” (PHARMABLOCK SCIENCES (NANJING), INC., priority 2018, dated 2023).
